Assay results reported in patent publication US8080657B2, “Compounds of reverse turn mimetics and the use thereof” (Choongwae Pharma Corporation, priority 2008, dated 2011).
Like-named read-outs stand apart in the source and are kept apart here.

System: Wnt signaling
Assay: TopFlash reporter gene bioassay in SW480 cells
Type: cell-based
[1] = Homo sapiens, SW480, TopFlash reporter gene assay, inhibition of Wnt signaling; read-out: RGA, IC50 (μM) TopF
[2] = TopFlash reporter gene assay, inhibition of Wnt signaling; read-out: RGA, IC50 (μM) TopF
[3] = Homo sapiens, SW480; read-out: RGA, IC50 (μM) TopF

Row | Compound | IC50 [1] [µM] | further results
1 | C=CCN1CC(=O)N2[C@@H](Cc3ccc(O)cc3)C(=O)N(Cc3cccc(C#N)c3)C[C@@H]2N1C(=O)NCc1ccccc1 [compound 132] | 1.71 ± 0.28 | –
2 | C=CCN1CC(=O)N2[C@@H](Cc3ccc(O)cc3)C(=O)N(Cc3cccc(-c4nccs4)c3)C[C@@H]2N1C(=O)NCc1ccccc1 [compound 133] | – | IC50 [2]: 1.73 ± 0.22 µM
3 | C=CCN1CC(=O)N2[C@@H](Cc3ccc(O)cc3)C(=O)N(Cc3cccc(-c4ccc(OC)cc4)n3)C[C@@H]2N1C(=O)NCc1ccccc1 [compound 134] | 1.73 ± 0.35 | –
4 | C=CCN1CC(=O)N2[C@@H](Cc3ccc(O)cc3)C(=O)N(Cc3cccc(C(=O)NCCCOCCCC)c3)C[C@@H]2N1C(=O)NCc1ccccc1 [compound 135] | 1.77 ± 0.15 | –
5 | C=CCOc1ccc(CN2C[C@H]3N(C(=O)CN(CC=C)N3C(=O)NCc3ccccc3)[C@@H](Cc3ccc(OP(=O)(O)O)cc3)C2=O)cc1 [compound 136] | – | IC50 [3]: 1.83 ± 0.32 µM
6 | C=CCN1CC(=O)N2[C@@H](Cc3ccc(O)cc3)C(=O)N(Cc3cccc(-c4cccc(OC)c4)c3)C[C@@H]2N1C(=O)NCc1ccccc1 [compound 137] | 1.86 ± 0.3 | –
7 | C=CCN1CC(=O)N2[C@@H](Cc3ccc(O)cc3)C(=O)N(Cc3csc4cc(NCc5ccccc5)ccc34)C[C@@H]2N1C(=O)NCc1ccccc1 [compound 138] | – | IC50 [2]: 1.86 ± 0.38 µM
8 | C=CCN1CC(=O)N2[C@@H](Cc3ccc(O)cc3)C(=O)N(Cc3cccc(OC)c3OC3CCCC3)C[C@@H]2N1C(=O)NCc1ccccc1 [compound 139] | 1.89 ± 0.38 | –
9 | C=CCN1CC(=O)N2[C@@H](Cc3ccc(O)cc3)C(=O)N(Cc3cccc(-c4ccc(OC)cc4)c3)C[C@@H]2N1C(=O)NCc1ccccc1 [compound 140] | 1.91 ± 0.24 | –
10 | C=CCN1CC(=O)N2[C@@H](Cc3ccc(O)cc3)C(=O)N(Cc3cccc(-c4ccc(F)cc4)n3)C[C@@H]2N1C(=O)NCc1ccccc1 [compound 141] | 1.91 ± 0.28 | –
11 | C=CCN1CC(=O)N2[C@@H](Cc3ccc(O)cc3)C(=O)N(Cc3csc4cc(NC(C)=O)ccc34)C[C@@H]2N1C(=O)NCc1ccccc1 [compound 142] | 1.92 ± 0.28 | –
12 | C=CCOc1c(CN2C[C@H]3N(C(=O)CN(CC=C)N3C(=O)NCc3ccccc3)[C@@H](Cc3ccc(O)cc3)C2=O)cccc1C(C)(C)C [compound 143] | 1.93 ± 0.18 | –
13 | C=CCN1CC(=O)N2[C@@H](Cc3ccc(O)cc3)C(=O)N(Cc3cccc(-c4ccccc4)c3)C[C@@H]2N1C(=O)NCc1ccccc1 [compound 144] | 1.94 ± 0.48 | –
14 | C=CCOc1ccccc1CN1C[C@H]2N(C(=O)CN(CC=C)N2C(=O)NCc2ccccc2)[C@@H](Cc2ccc(O)cc2)C1=O [compound 145] | 1.96 ± 0.27 | –
15 | C=CCN1CC(=O)N2[C@@H](Cc3ccc(O)cc3)C(=O)N(Cc3cccc(Oc4ccccc4)c3)C[C@@H]2N1C(=O)NCc1ccccc1 [compound 146] | 1.99 ± 0.12 | –
16 | C=CCN1CC(=O)N2[C@@H](Cc3ccc(ON)cc3)C(=O)N(Cc3ccc(OC)c(Cl)c3)C[C@@H]2N1C(=O)NCc1ccccc1 [compound 147] | 1.99 ± 0.32 | –
17 | C=CCN1CC(=O)N2[C@@H](Cc3ccc(O)cc3)C(=O)N(Cc3csc4c([N+](=O)[O-])cccc34)C[C@@H]2N1C(=O)NCc1ccccc1 [compound 148] | – | IC50 (Homo sapiens, SW480, read-out: RGA, IC50 (μM) TopF): 10 ± 1.7 µM
18 | C=CCN1CC(=O)N2[C@@H](Cc3ccc(O)cc3)C(=O)N(C/C=C/c3ccccc3)C[C@@H]2N1C(=O)NCc1ccccc1 [compound 149] | 10.1 ± 2.38 | –
19 | C=CCN1CC(=O)N2[C@@H](Cc3ccc(O)cc3)C(=O)N(Cc3cc(C(C)(C)C)cc(C(C)(C)C)c3OC)C[C@@H]2N1C(=O)NCc1ccccc1 [compound 150] | 10.2 ± 1.55 | –
20 | C=CCN1CC(=O)N2[C@@H](Cc3ccc(OS(=O)(=O)NC)cc3)C(=O)N(Cc3ccc(F)cc3F)C[C@@H]2N1C(=O)NCc1ccccc1 [compound 151] | 10.2 ± 2.3 | –
21 | C=CCN1CC(=O)N2[C@@H](Cc3ccc(O)cc3)C(=O)N(Cc3ccnc(C(N)=O)c3)C[C@@H]2N1C(=O)NCc1ccccc1 [compound 153] | 10.8 ± 1.97 | –
22 | C=CCN1CC(=O)N2[C@@H](Cc3ccc(O)cc3)C(=O)N(Cc3ccc(OCCCCC)cc3)C[C@@H]2N1C(=O)NCc1ccccc1 [compound 154] | 11.8 ± 0.9 | –
23 | C=CCN1CC(=O)N2[C@@H](Cc3ccc(O)cc3)C(=O)N(Cc3csc4cc(NC(=O)NC)ccc34)C[C@@H]2N1C(=O)NCc1ccccc1 [compound 155] | 11.8 ± 1.61 | –
24 | C=CCN1CC(=O)N2[C@@H](Cc3ccc(O)cc3)C(=O)N(Cc3cccc(-c4ccc[nH]c4=O)c3)C[C@@H]2N1C(=O)NCc1ccccc1 [compound 156] | 12.2 ± 2.02 | –
25 | C=CCN1CC(=O)N2[C@@H](Cc3ccc(O)cc3)C(=O)N(Cc3csc4cc(NC(=O)NC)ccc34)C[C@@H]2N1C(=O)NCc1ccccc1 [compound 157] | – | IC50 [2]: 12.4 ± 2.36 µM
26 | C=CCN1CC(=O)N2[C@@H](Cc3ccc(O)cc3)C(=O)N(Cc3ccc(F)c4scnc34)C[C@@H]2N1C(=O)NCc1ccccc1F [compound 158] | 12.5 ± 2.66 | –
27 | C=CCN1CC(=O)N2[C@@H](Cc3ccc(O)cc3)C(=O)N(Cc3cn(CCC)c4ccccc34)C[C@@H]2N1C(=O)NCc1ccccc1 [compound 159] | 14.1 ± 2.3 | –
28 | C=CCN1CC(=O)N2[C@@H](Cc3ccc(O)cc3)C(=O)N(Cc3cccc(C(=O)NN)c3)C[C@@H]2N1C(=O)NCc1ccccc1 [compound 160] | 14.2 ± 2.05 | –

Row | Compound | IC50 [1] [µM] | further results
29 | C=CCN1CC(=O)N2[C@@H](Cc3ccc(O)cc3)C(=O)N(Cc3cccc(OC)c3OS(=O)(=O)CCCCCCCC)C[C@@H]2N1C(=O)NCc1ccccc1 [compound 161] | 14.4 ± 2.77 | –
30 | C=CCN1CC(=O)N2[C@@H](Cc3ccc(NC(N)=O)cc3)C(=O)N(Cc3cccc4scnc34)C[C@@H]2N1C(=O)NCc1ccccc1 [compound 162] | 15.1 ± 3.34 | –
31 | C=CCN1CC(=O)N2[C@@H](Cc3ccc(O)cc3)C(=O)N(Cc3cc(C(C)(C)C)cc(C(C)(C)C)c3)C[C@@H]2N1C(=O)NCc1ccccc1 [compound 163] | 15.7 ± 1.87 | –
32 | C=CCN1CC(=O)N2[C@@H](Cc3ccc(O)cc3)C(=O)N(Cc3ccccc3-n3cnnn3)C[C@@H]2N1C(=O)NCc1ccccc1 [compound 164] | 15.7 ± 3.22 | –
33 | C=CCN1CC(=O)N2[C@@H](Cc3ccc(O)cc3)C(=O)N(Cc3cccnc3-c3ccccc3OC)C[C@@H]2N1C(=O)NCc1ccccc1 [compound 165] | 17.2 ± 4.11 | –
34 | C=CCN1CC(=O)N2[C@@H](Cc3ccc(O)cc3)C(=O)N(Cc3cn(-c4cccc(F)c4)c4ccccc34)C[C@@H]2N1C(=O)NCc1ccccc1 [compound 166] | 17.5 ± 5.57 | –
35 | C=CCN1CC(=O)N2[C@@H](Cc3ccc(O)cc3)C(=O)N(Cc3csc4c(NC(=O)OC)cccc34)C[C@@H]2N1C(=O)NCc1ccccc1 [compound 167] | 19.4 ± 3.4 | –
36 | C=CCN1CC(=O)N2[C@@H](Cc3ccc(O)cc3)C(=O)N(Cc3cccc(C(N)=O)n3)C[C@@H]2N1C(=O)NCc1ccccc1 [compound 168] | 2.01 ± 0.2 | –
37 | C=CCOc1cccc(CN2C[C@H]3N(C(=O)CN(CC=C)N3C(=O)NCc3ccccc3)[C@@H](Cc3ccc(O)cc3)C2=O)c1 [compound 169] | 2.01 ± 0.34 | –
38 | C=CCN1CC(=O)N2[C@@H](Cc3ccc(O)cc3)C(=O)N(Cc3ccccc3S(=O)(=O)c3ccc(Cl)cc3)C[C@@H]2N1C(=O)NCc1ccccc1 [compound 170] | 2.07 ± 0.43 | –
39 | C=CCN1CC(=O)N2[C@@H](Cc3ccc(O)cc3)C(=O)N(Cc3ccc(F)c4scnc34)C[C@@H]2N1C(=O)NCc1cccs1 [compound 171] | – | IC50 [2]: 2.1 ± 0.34 µM
40 | C=CCN1CC(=O)N2[C@@H](Cc3ccc(OP(=O)(O)O)cc3)C(=O)N(Cc3cccc(OCCN4CCOCC4)c3)C[C@@H]2N1C(=O)NCc1ccccc1 [compound 172] | – | IC50 [3]: 2.21 ± 0.35 µM
41 | C=CCN1CC(=O)N2[C@@H](Cc3ccc(O)cc3)C(=O)N(Cc3cccc(OC)c3OCCN3CCCCC3)C[C@@H]2N1C(=O)NCc1ccccc1 [compound 173] | 2.26 ± 0.16 | –
42 | C=CCN1CC(=O)N2[C@@H](Cc3ccc(O)cc3)C(=O)N(Cc3ccc4ccn(S(=O)(=O)c5ccc(C)cc5)c4c3)C[C@@H]2N1C(=O)NCc1ccccc1 [compound 174] | 2.33 ± 0.64 | –
43 | C=CCN1CC(=O)N2[C@@H](Cc3ccc(O)cc3)C(=O)N(Cc3ccc(OC)c(OC)c3)C[C@@H]2N1C(=O)NCc1ccccc1 [compound 175] | 2.36 ± 0.57 | –
44 | C=CCN1CC(=O)N2[C@@H](Cc3ccc(O)cc3)C(=O)N(Cc3ccnc(-c4ccccc4)n3)C[C@@H]2N1C(=O)NCc1ccccc1 [compound 176] | 2.37 ± 0.22 | –
45 | C=CCN1CC(=O)N2[C@@H](Cc3ccc(O)cc3)C(=O)N(Cc3cccc(Br)n3)C[C@@H]2N1C(=O)NCc1ccccc1 [compound 177] | 2.37 ± 0.35 | –
46 | C=CCN1CC(=O)N2[C@@H](Cc3ccc(O)cc3)C(=O)N(Cc3ccc(F)c4scnc34)C[C@@H]2N1C(=O)NCCc1ccccc1 [compound 178] | – | IC50 [2]: 2.38 ± 0.75 µM
47 | C=CCN1CC(=O)N2C(CN(Cc3cccc(-c4ccc(SC)cc4)n3)C(=O)[C@@H]2Cc2ccc(O)cc2)N1C(=O)NCc1ccccc1 (stereo partly shown) [compound 179] | 2.42 ± 0.32 | –
48 | C=CCN1CC(=O)N2[C@@H](Cc3ccc(O)cc3)C(=O)N(Cc3cccnc3-c3ccc(OC)cc3)C[C@@H]2N1C(=O)NCc1ccccc1 [compound 180] | 2.42 ± 0.47 | –
49 | C=CCN1CC(=O)N2[C@@H](Cc3ccc(O)cc3)C(=O)N(Cc3cccc(NS(C)(=O)=O)c3)C[C@@H]2N1C(=O)NCc1ccccc1 [compound 181] | 2.47 ± 0.37 | –
50 | C=CCN1CC(=O)N2[C@@H](Cc3ccc(O)cc3)C(=O)N(Cc3cccc(C(=O)NOC)c3)C[C@@H]2N1C(=O)NCc1ccccc1 [compound 182] | 2.48 ± 0.22 | –
51 | C=CCN1CC(=O)N2[C@@H](Cc3ccc(O)cc3)C(=O)N(Cc3cccc(C(=O)NC)c3)C[C@@H]2N1C(=O)NCc1ccccc1 [compound 183] | 52.5 ± 0.32 | –
52 | C#Cc1ccc(CNC(=O)N2[C@H]3CN(Cc4cccc(OC)c4OC)C(=O)[C@H](Cc4ccc(O)cc4)N3C(=O)CN2CC=C)cc1 [compound 184] | 2.56 ± 0.29 | –
53 | C=CCN1CC(=O)N2[C@@H](Cc3ccc(O)cc3)C(=O)N(Cc3csc4ccc(NC=O)cc34)C[C@@H]2N1C(=O)NCc1ccccc1 [compound 185] | – | IC50 [3]: 2.61 ± 0.19 µM
54 | C=CCN1CC(=O)N2[C@@H](Cc3ccc(O)cc3)C(=O)N(Cc3cccc(-c4ccccc4)n3)C[C@@H]2N1C(=O)NCc1ccccc1 [compound 186] | 2.66 ± 0.74 | –
55 | C=CCN1CC(=O)N2[C@@H](Cc3ccc(O)cc3)C(=O)N(Cc3cccc4ccn(-c5ccccn5)c34)C[C@@H]2N1C(=O)NCc1ccccc1 [compound 187] | 2.67 ± 0.28 | –
